This is an account of results in article PMC9737838, “Long-Distance Protonation-Conformation Coupling in Phytochrome Species” (Molecules, 2022).

The experiment deals with T1, Agp1-PGP (photosensory module PAS-GAF-PHY of Agp1) (Agrobacterium fabrum, UniProt Q7CY45).
T1 construct: gene Atu1990; photosensory module PAS-GAF-PHY, residues 1-504, C-terminal His6 tag; apoprotein from E. coli assembled with biliverdin; plasmids with and without deletion of the first 9 residues used for mutagenesis
T1 sequence (Q7CY45 1-495): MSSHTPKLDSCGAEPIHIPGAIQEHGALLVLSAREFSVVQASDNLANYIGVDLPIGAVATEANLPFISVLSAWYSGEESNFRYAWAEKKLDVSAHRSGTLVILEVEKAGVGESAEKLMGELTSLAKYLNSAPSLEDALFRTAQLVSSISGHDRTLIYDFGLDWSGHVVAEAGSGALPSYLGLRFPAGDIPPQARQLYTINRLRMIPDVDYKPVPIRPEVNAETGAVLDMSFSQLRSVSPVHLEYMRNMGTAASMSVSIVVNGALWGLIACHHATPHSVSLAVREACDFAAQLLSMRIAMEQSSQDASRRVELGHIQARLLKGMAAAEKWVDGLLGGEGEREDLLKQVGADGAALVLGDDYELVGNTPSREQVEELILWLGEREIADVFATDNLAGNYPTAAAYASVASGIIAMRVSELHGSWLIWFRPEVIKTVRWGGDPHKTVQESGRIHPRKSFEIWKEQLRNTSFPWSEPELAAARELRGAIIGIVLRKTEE
Put plainly: UV-Vis absorption of the assembled holoprotein, pH titration. The experiment is classed as binding. The following applies: covalent, Cys20; Pr state, 702 nm band, 300 mM NaCl, 50 mM Tris, 20 °C.

For `C=CC1=C(C)/C(=C/C2=NC(=C\c3[nH]c(/C=C4\NC(=O)C(C)=C4C=C)c(C)c3CCC(=O)O)/C(CCC(=O)O)=C2C)NC1=O` [BV, biliverdin], the “UV-Vis absorption of the assembled holoprotein, pH titration” value is “The apoprotein was expressed and assembled with BV according to established protocols”.
